One assay has as its target PfAcAS WT (Plasmodium falciparum, UniProt C6KTB4). The assay is described as follows: EnzChek assay, recombinant PfAcAS WT (steady-state kinetics and IC50). To be noted: for Km: substrate varied, other two saturating. It counts as biochemical, P. falciparum. The protocol:
(§1) Steady-state kinetic measurements were conducted at room temperature using a PheraStar plate reader (BMG). The first step of the reaction of PfAcAS, which produces inorganic pyrophosphate (PPi) that is converted to two molecules of inorganic phosphate using a pyrophosphatase enzyme, was continuously monitored using the EnzChek Phosphate Assay Kit, which gives an absorbance readout at 360 nm (Figure 4A) ([Webb, 1992]). […] By adding CoA, the reaction rapidly proceeds to the second step resulting in further release of pyrophosphate, making the EnzChek assay a suitable option to continuously monitor the activity of PfAcAS. Typical kinetic assays were carried out in clear, flat-bottom, polystyrene, 384-well plates (Greiner) in an 80 μL reaction volume containing 100 mM HEPES (pH7.4), 100 mM NaCl, 250 mM KCl, 50 mM MgCl2, 1 mM DTT, 0.004% Tween 20, 0.5 U/mL pyrophosphatase, 0.1 mM MESG, 0.5 U/mL PNP, 2 mM ATP, 2 mM acetate, 0.5 mM CoA and 5 nM recombinant PfAcAS WT or 10 nM recombinant PfAcAS A597V or T648M. Assays were performed by adding 40 μL of a 2-times concentrated substrate mixture including MESG to all wells, and the reactions started by adding 40 μL of a 2-times concentrated reaction mixture containing all other components. The reactions were carried out for 2 to 4 hr with absorbance readings at 360 nm every two to four minutes. Reaction rates were extracted from the linear phase of activity, usually using 10 to 20 points between times of 30 and 100 min of the reactions. Using a phosphate standard curve obtained under the same buffer conditions used for the PfAcAS reactions (Figure S5A), the rates were then converted to velocity per second, conversion of one nanomolar of phosphate, per nanomolar of enzyme, per second. The substrates Km values were determined by varying the concentration of one of the substrates at saturating concentration of the other two substrates. Steady-state data were fitted using the nonlinear, least-squares, curve-fitting programs of Sigma-Plot for Windows, version 14.0. Individual saturation curves were fit to Equation 1(Equation 1) v=VS/K+S where V is the maximal velocity, S is the substrate concentration and K is the Michaelis constant for the substrate (Km). Individual saturation curves displaying substrate inhibition were fit to Equation 2(Equation 2) v=VS/K+S×(1+S/Ks) where Ks is the substrate inhibition constant.
(§2) To determine the steady-state inhibition parameters and patterns associated with both inhibitors, PfAcAS activity was studied in the presence of variable concentrations of one substrate, ATP, acetate or CoA, fixed saturating concentration of the other two substrates (acetate and CoA, ATP and CoA, or ATP and acetate) and several fixed concentrations of inhibitor. Assay ready plates containing different concentrations of inhibitor were prepared using an Echo 550 acoustic dispenser (Labcyte Inc.). The assays were carried out as described in the previous section. […] For better comparison between both inhibitors and proteins, the ymin was fixed to zero and the ymax to 100. Inhibition data showing linear, competitive patterns in double-reciprocal plots were fit to Equation 4(Equation 4) v=VS/K(1+I/Ki)+S where Ki is the dissociation constant for the enzyme-inhibitor complex. Inhibition data showing linear, mixed inhibition patterns in double-reciprocal plots were fit to Equation 5(Equation 5) v=VS/K(1+I/Kis)+S(1+I/Kii) where Kis is the dissociation constant for the free enzyme-inhibitor complex and Kii is the dissociation constant for the enzyme-substrate-inhibitor complex. Inhibition data showing linear, uncompetitive patterns in double-reciprocal plots were fit to Equation 6(Equation 6) v=VS/K+S(1+I/Ki)

The next assay deals with T1, PfAcAS T648M (Plasmodium falciparum, UniProt C6KTB4, T648M).
T1 sequence (C6KTB4 1-997 T648M): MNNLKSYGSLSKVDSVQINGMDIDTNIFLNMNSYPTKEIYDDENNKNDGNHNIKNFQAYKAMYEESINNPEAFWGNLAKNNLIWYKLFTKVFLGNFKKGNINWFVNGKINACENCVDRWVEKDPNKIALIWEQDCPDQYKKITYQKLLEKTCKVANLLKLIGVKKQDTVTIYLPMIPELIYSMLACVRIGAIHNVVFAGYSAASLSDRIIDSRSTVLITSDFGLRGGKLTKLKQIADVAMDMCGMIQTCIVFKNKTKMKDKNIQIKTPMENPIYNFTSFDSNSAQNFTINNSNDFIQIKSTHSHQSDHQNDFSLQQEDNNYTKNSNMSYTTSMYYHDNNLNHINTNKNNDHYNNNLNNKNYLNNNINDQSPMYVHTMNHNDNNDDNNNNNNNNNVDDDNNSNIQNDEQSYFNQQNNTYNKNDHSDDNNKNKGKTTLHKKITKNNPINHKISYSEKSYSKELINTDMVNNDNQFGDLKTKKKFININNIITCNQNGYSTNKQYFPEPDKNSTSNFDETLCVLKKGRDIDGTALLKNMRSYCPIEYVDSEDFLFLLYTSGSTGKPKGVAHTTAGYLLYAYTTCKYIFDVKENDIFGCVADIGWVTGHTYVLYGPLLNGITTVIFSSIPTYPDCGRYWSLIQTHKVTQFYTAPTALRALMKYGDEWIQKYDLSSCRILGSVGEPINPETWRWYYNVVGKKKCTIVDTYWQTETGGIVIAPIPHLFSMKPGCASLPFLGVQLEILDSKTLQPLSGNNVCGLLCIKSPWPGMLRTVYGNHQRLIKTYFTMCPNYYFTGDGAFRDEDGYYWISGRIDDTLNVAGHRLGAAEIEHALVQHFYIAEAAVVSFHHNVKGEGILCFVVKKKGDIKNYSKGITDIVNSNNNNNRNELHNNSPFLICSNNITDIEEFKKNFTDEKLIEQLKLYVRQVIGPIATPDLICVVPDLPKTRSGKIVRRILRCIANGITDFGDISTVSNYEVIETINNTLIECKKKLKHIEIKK
The assay is described as follows: EnzChek assay, recombinant PfAcAS T648M. It is filed as biochemical, P. falciparum. The settings on record: substrate varied, other two saturating. The protocol:
as §1, §2

The target in a further assay is T2, PfAcAS A597V (Plasmodium falciparum, UniProt C6KTB4, A597V).
T2 sequence (C6KTB4 1-997 A597V): T1 sequence (C6KTB4 1-997 T648M)
The assay is described as follows: EnzChek assay, recombinant PfAcAS A597V. It is filed as biochemical, P. falciparum. To be noted: substrate varied, other two saturating. The protocol:
as §1, §2

A further assay deals with T3, HsAcAS WT (Homo sapiens, UniProt Q9NR19).
T3 construct: made in house; host or cells: Expi293 cells (pCDNA 3.1, transient transfection)
T3 sequence (Q9NR19 whole entry): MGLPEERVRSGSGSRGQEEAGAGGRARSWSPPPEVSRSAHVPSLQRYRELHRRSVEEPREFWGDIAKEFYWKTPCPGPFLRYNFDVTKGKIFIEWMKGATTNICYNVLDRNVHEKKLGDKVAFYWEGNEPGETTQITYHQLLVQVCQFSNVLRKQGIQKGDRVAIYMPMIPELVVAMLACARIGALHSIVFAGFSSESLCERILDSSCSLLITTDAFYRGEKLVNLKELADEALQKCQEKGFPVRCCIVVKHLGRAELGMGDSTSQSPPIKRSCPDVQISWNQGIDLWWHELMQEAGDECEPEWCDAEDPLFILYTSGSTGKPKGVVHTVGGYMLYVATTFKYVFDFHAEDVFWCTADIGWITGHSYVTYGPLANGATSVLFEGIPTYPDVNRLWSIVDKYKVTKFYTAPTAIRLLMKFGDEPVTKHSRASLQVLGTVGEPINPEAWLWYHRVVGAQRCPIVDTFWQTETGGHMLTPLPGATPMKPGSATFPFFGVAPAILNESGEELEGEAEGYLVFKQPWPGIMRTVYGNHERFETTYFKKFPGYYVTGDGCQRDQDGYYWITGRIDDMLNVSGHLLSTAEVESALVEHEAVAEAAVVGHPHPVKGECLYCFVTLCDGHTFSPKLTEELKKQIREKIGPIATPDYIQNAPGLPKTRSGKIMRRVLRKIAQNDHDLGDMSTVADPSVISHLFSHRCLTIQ
Put plainly: HsAcAS Rapid-Fire QQQ mass spectrometry assay. To be noted: for Km: read-out: Km (µM), HsWT. It counts as biochemical. The protocol: The human form of acetyl-CoA synthetase was assayed in 100 mM HEPES (pH7.4), 100 mM NaCl, 250 mM KCl, 50 mM MgCl2, 1 mM DTT, 0.005% NP40, 400 μM ATP, 70 μM acetate, 40 μM CoA and 2 nM recombinant HsAcAS. Assay ready plates containing different concentrations of inhibitor were prepared using an Echo 550 acoustic dispenser (Labcyte Inc.), dispensing 150 nL of compound per well. Assays were conducted in a total volume of 15 μL for 30 min at room temperature before being quenched with the addition of 85 μL 1% formic acid containing 0.5 μg/mL n-Propionyl coenzyme A (Sigma P5397) as an internal standard. Reaction products were detected using a RapidFire 365 system (Agilent, Santa Clara, CA) coupled with a triple quadrupole mass spectrometer 6740 (Agilent).
The sipper was washed to minimize carryover with 0.1% TFA in deionized water followed by 0.1% TFA in acetonitrile/deionized water (95%/5%, v/v). The sipper was washed to minimize carryover with deionized water followed by acetonitrile. Aspiration time, load/wash time, elution time, and re-equilibration time were set to 600, 3000, 5000, and 500 ms, respectively, with a cycle time of approximately 10 s. The triple-quadrupole mass spectrometer with electrospray ion source was operated in positive multiple reaction monitoring (MRM) mode. The detailed setting for the mass spectrometer parameters was as follows: capillary voltage, 3000 V; gas temperature, 350°C; gas flow, 7 L/min; nebulizer, 40 psi; sheath gas temperature, 300°C′ sheath gas flow, 11 L/min; and nozzle voltage, 1500 V. The MRM transitions for acetyl-CoA as a reaction product were set as 810.1/303.1 & 810.1/428.1 (quantifier & qualifier with dwell time of 50 ms, 100V fragmentor, and collision energies of 30 & 28 eV respectively) and for n-propionyl-CoA as an internal standard as 824.2/317.2 & 824.2/428.0 (quantifier & qualifier with dwell time of 50 ms, 100V fragmentor, and collision energies of 32 & 26 eV respectively). The mass resolution window for both parental and daughter ions was set at as a unit (0.7 Da). Peak areas were integrated, and area ratios of acetyl-CoA to the internal standard (n-propionyl CoA) were used for quantitation. Data were converted to % inhibition relative to the uninhibited enzyme control and fitted to Equation 3.

As usually defined, the Km is the substrate concentration at which the rate is half of its maximum.

For `CC(=O)O` [acetate], the Km is 72 µM at PfAcAS WT, 190 ± 8 µM on PfAcAS T648M, 400 ± 12 µM at PfAcAS A597V and 61 ± 4 µM at HsAcAS WT. The “Vmax (s-1), PfAcAS A597V” value at PfAcAS A597V was 0.54 ± 0.05 s⁻¹.
For `CC(C)(COP(=O)(O)OP(=O)(O)OC[C@H]1O[C@@H](n2cnc3c(N)ncnc32)[C@H](O)[C@@H]1OP(=O)(O)O)[C@@H](O)C(=O)NCCC(=O)NCCS` [CoA], the “Ki (µM), substrate inhibition, PfAcAS WT” value on PfAcAS WT (substrate inhibition constant) was 2700 ± 310 µM. Further, the Km on PfAcAS WT is 42 µM; on PfAcAS T648M, 82 ± 6 µM; at PfAcAS A597V it was 61 ± 6 µM; at HsAcAS WT it was 36 ± 5 µM. Moreover, on PfAcAS A597V, the “Vmax (s-1), PfAcAS A597V” value stood at 0.84 ± 0.05 s⁻¹. For the same compound, the “Ki (µM), substrate inhibition, HsWT” value on HsAcAS WT (substrate inhibition constant) worked out at 1000 ± 190 µM.
